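Grown in 96-well plates, cells were treated for 48 hours with each compound at five concentrations. Insufficient inhibition: endpoint recorded as highest concentration tested. GI50: concentration for 50% inhibition of growth.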 Calls of active or inactive are those of the source. Rule as the data show it: active = GI50 up to about 1.1 µM and inactive = higher.
Legend:
Test in all cases: NCI-60 cell line screen, 48 h
[1] = test system: ACHN
[2] = test system: BT-549
[3] = test system: SF-539
[4] = test system: NCI-H460
[5] = test system: HOP-92
[6] = test system: HOP-62
[7] = test system: NCI-H226
[8] = test system: HCT-116
[9] = test system: SNB-75
[10] = test system: K562
[11] = test system: SN12C
[12] = test system: Hs-578T
[13] = test system: A549
[14] = test system: OVCAR-4
[15] = test system: DU-145
[16] = test system: SK-MEL-28
[17] = test system: MOLT-4
[18] = test system: HL-60
[19] = test system: NCI/ADR-RES
[20] = test system: MDA-MB-231

| Structure (SMILES) | GI50 [1] | GI50 [2] | GI50 [3] | GI50 [4] | GI50 [5] | GI50 [6] | GI50 [7] | GI50 [8] | GI50 [9] | GI50 [10] | GI50 [11] | GI50 [12] | GI50 [13] | GI50 [14] | GI50 [15] | GI50 [16] | GI50 [17] | GI50 [18] | GI50 [19] | GI50 [20] |
| --- | --- | --- | --- | --- | --- | --- | --- | --- | --- | --- | --- | --- | --- | --- | --- | --- | --- | --- | --- | --- |
| O=C(Nn1c(-c2ccccc2)nc2ccccc2c1=O)c1cccc([N+](=O)[O-])c1 | 86.7 µM (inactive) | 32.3 µM (inactive) | > 100 µM (inactive) | 53.8 µM (inactive) | 35.2 µM (inactive) | > 100 µM (inactive) | 52.8 µM (inactive) | > 100 µM (inactive) | > 100 µM (inactive) | > 100 µM (inactive) | > 100 µM (inactive) | 95.3 µM (inactive) | 44.4 µM (inactive) | 86.1 µM (inactive) | > 100 µM (inactive) | 79.6 µM (inactive) | 39.9 µM (inactive) | > 100 µM (inactive) | – | – |
| COc1ccc2nc3ccc(OC)cc3c(S(=O)(=O)Cc3ccc([N+](=O)[O-])cc3)c2c1 | > 100 µM (inactive) | – | > 100 µM (inactive) | > 100 µM (inactive) | > 100 µM (inactive) | 93.5 µM (inactive) | > 100 µM (inactive) | > 100 µM (inactive) | 38.7 µM (inactive) | > 100 µM (inactive) | > 100 µM (inactive) | – | > 100 µM (inactive) | > 100 µM (inactive) | > 100 µM (inactive) | > 100 µM (inactive) | > 100 µM (inactive) | > 100 µM (inactive) | > 100 µM (inactive) | 61.7 µM (inactive) |
| COc1ccc2c(c1)C1=NCCN(CCO)c3ccc([N+](=O)[O-])c(c31)N2 | 0.348 µM (active) | – | 0.415 µM (active) | 0.274 µM (active) | 0.395 µM (active) | 0.462 µM (active) | 0.331 µM (active) | 0.232 µM (active) | 0.578 µM (active) | 0.222 µM (active) | 0.429 µM (active) | 0.693 µM (active) | 0.427 µM (active) | 0.54 µM (active) | 1.02 µM (active) | 0.624 µM (active) | 0.0755 µM (active) | 0.34 µM (active) | 1.23 µM (inactive) | 0.468 µM (active) |
| CC1(C)CC2=NO[Se]3=C2C(=NO3)C1 | 1.72 µM (inactive) | 1.47 µM (inactive) | 2.15 µM (inactive) | 1.34 µM (inactive) | 2.63 µM (inactive) | 2.99 µM (inactive) | 3.76 µM (inactive) | 0.485 µM (active) | 2.68 µM (inactive) | 2.72 µM (inactive) | 4.43 µM (inactive) | 4.35 µM (inactive) | 3.42 µM (inactive) | 3.41 µM (inactive) | 3.83 µM (inactive) | 4.54 µM (inactive) | 3.48 µM (inactive) | 2.22 µM (inactive) | – | 4.19 µM (inactive) |
| COc1ccc(CC2C(=O)NC(C)C(=O)N(C)C3Cc4ccc(cc4)Oc4cc(ccc4O)CC(C(=O)NC(C)C(=O)NC(C)C(=O)N2C)N(C)C3=O)cc1 (centres undefined) | 0.0738 µM (active) | – | 0.0175 µM (active) | 0.0175 µM (active) | – | 0.0179 µM (active) | – | 0.0175 µM (active) | 0.0175 µM (active) | 0.0175 µM (active) | 0.0175 µM (active) | – | – | 0.0175 µM (active) | < 0.0001 µM (active) | 0.0175 µM (active) | 0.0175 µM (active) | 0.0175 µM (active) | 2.44 µM (inactive) | < 0.0001 µM (active) |
| COC(=O)CCC(=O)c1ccc2c(c1)CC1(C2)Cc2ccc3c(c2C1)CCCC3=O (centres undefined) | 21.1 µM (inactive) | – | 11.9 µM (inactive) | 25.2 µM (inactive) | 15.5 µM (inactive) | > 53.5 µM (inactive) | 27.8 µM (inactive) | > 34 µM (inactive) | 86.5 µM (inactive) | 2.88 µM (inactive) | 38.1 µM (inactive) | 56.1 µM (inactive) | > 57 µM (inactive) | 24.1 µM (inactive) | 33.7 µM (inactive) | 25.5 µM (inactive) | 0.489 µM (active) | 3.94 µM (inactive) | 29 µM (inactive) | > 73.5 µM (inactive) |
| O=C(CC(=O)c1cccc2ccccc12)C(=O)Nc1nccs1 | > 100 µM (inactive) | – | > 100 µM (inactive) | > 100 µM (inactive) | > 100 µM (inactive) | > 100 µM (inactive) | > 100 µM (inactive) | > 100 µM (inactive) | 66.2 µM (inactive) | > 100 µM (inactive) | > 100 µM (inactive) | – | > 100 µM (inactive) | > 100 µM (inactive) | – | > 100 µM (inactive) | > 100 µM (inactive) | > 100 µM (inactive) | – | – |
| CC(CO)CCNc1ncnc2c1ncn2CCC#N (centres undefined) | > 100 µM (inactive) | – | > 100 µM (inactive) | > 100 µM (inactive) | > 100 µM (inactive) | > 100 µM (inactive) | > 100 µM (inactive) | > 100 µM (inactive) | > 100 µM (inactive) | > 100 µM (inactive) | > 100 µM (inactive) | > 100 µM (inactive) | > 100 µM (inactive) | > 100 µM (inactive) | > 100 µM (inactive) | > 100 µM (inactive) | > 100 µM (inactive) | > 100 µM (inactive) | > 100 µM (inactive) | > 100 µM (inactive) |
| O=C(Cn1c2c(c3ccccc31)CCCC2)N1CCCCC1 | > 100 µM (inactive) | > 100 µM (inactive) | 86.7 µM (inactive) | > 100 µM (inactive) | > 100 µM (inactive) | > 100 µM (inactive) | – | > 100 µM (inactive) | – | – | > 100 µM (inactive) | > 100 µM (inactive) | > 100 µM (inactive) | > 100 µM (inactive) | – | > 100 µM (inactive) | > 100 µM (inactive) | > 100 µM (inactive) | > 100 µM (inactive) | – |
| Cc1[nH]c2ccccc2c1C1Cc2ccccc2N1C(=O)/C(Cl)=C/c1ccccc1 (centres undefined) | 98.9 µM (inactive) | – | 40.9 µM (inactive) | > 100 µM (inactive) | > 100 µM (inactive) | > 100 µM (inactive) | > 69 µM (inactive) | 36.5 µM (inactive) | 4.65 µM (inactive) | 70.3 µM (inactive) | > 100 µM (inactive) | – | 88.1 µM (inactive) | > 88.1 µM (inactive) | – | > 100 µM (inactive) | 15.2 µM (inactive) | 98.2 µM (inactive) | – | – |
| O=C(NC1CCCCC1)c1cc2ccccc2cc1O | – | – | 24 µM (inactive) | 26.1 µM (inactive) | 22.3 µM (inactive) | 35.7 µM (inactive) | 17.3 µM (inactive) | 18.7 µM (inactive) | 45.5 µM (inactive) | 27.7 µM (inactive) | – | 36.2 µM (inactive) | – | 20.3 µM (inactive) | 43.2 µM (inactive) | 49.3 µM (inactive) | – | 22.6 µM (inactive) | 17.7 µM (inactive) | 61 µM (inactive) |
| Cc1ccc(/N=N/c2c(C)nn(-c3ccccc3)c2-c2ccccc2)c(Br)c1 | 53.8 µM (inactive) | – | 20.2 µM (inactive) | 31.8 µM (inactive) | 40 µM (inactive) | > 100 µM (inactive) | > 100 µM (inactive) | 12.6 µM (inactive) | > 100 µM (inactive) | 25.4 µM (inactive) | > 100 µM (inactive) | – | > 100 µM (inactive) | > 100 µM (inactive) | – | > 100 µM (inactive) | 8.15 µM (inactive) | 4.3 µM (inactive) | – | – |
| O=C(O)c1nc2ccccc2nc1Nc1ccc(Cl)c(Cl)c1 | 29.5 µM (inactive) | 16.1 µM (inactive) | 19.9 µM (inactive) | 13.6 µM (inactive) | 16.1 µM (inactive) | 16.1 µM (inactive) | 43.4 µM (inactive) | 22.5 µM (inactive) | 56.5 µM (inactive) | 21.7 µM (inactive) | 20.1 µM (inactive) | – | 24.1 µM (inactive) | – | 36.4 µM (inactive) | 13 µM (inactive) | 15.8 µM (inactive) | 25.8 µM (inactive) | 27.9 µM (inactive) | 31.3 µM (inactive) |
| N#C/C(=C1\SC(C(N)=O)=C(N)N1c1ccccc1)c1nc2ccccc2[nH]1 | > 100 µM (inactive) | – | 75.9 µM (inactive) | > 100 µM (inactive) | 39.5 µM (inactive) | > 100 µM (inactive) | > 100 µM (inactive) | > 100 µM (inactive) | 48.2 µM (inactive) | > 100 µM (inactive) | > 100 µM (inactive) | – | > 100 µM (inactive) | > 100 µM (inactive) | – | > 100 µM (inactive) | > 100 µM (inactive) | > 100 µM (inactive) | – | – |
| CC(=O)O[C@H]1C(=O)[C@@]2(C)[C@H]([C@H](OC(=O)c3ccccc3)[C@]3(O)C[C@H](OC(=O)[C@H](O)[C@@H](NC(=O)c4ccco4)c4ccccc4)C(C)=C1C3(C)C)[C@]1(OC(C)=O)CO[C@@H]1C[C@@H]2O | 0.043 µM (active) | – | < 0.00125 µM (active) | < 0.00125 µM (active) | – | < 0.00125 µM (active) | 0.00126 µM (active) | < 0.00125 µM (active) | < 0.00125 µM (active) | < 0.00125 µM (active) | – | < 0.00125 µM (active) | < 0.00125 µM (active) | > 10.7 µM (inactive) | 0.00205 µM (active) | > 12.5 µM (inactive) | 0.00286 µM (active) | < 0.00125 µM (active) | 2.64 µM (inactive) | 0.013 µM (active) |
| COC(=O)CCc1c(Cc2ccc[nH]2)[nH]c(C(=O)OCc2ccccc2)c1C | 23.1 µM (inactive) | – | 19.1 µM (inactive) | > 100 µM (inactive) | 23 µM (inactive) | 19.5 µM (inactive) | 17.1 µM (inactive) | 18.6 µM (inactive) | – | 25.5 µM (inactive) | 18.1 µM (inactive) | 22.6 µM (inactive) | 33.4 µM (inactive) | 11.9 µM (inactive) | 75.3 µM (inactive) | 20.1 µM (inactive) | 24.9 µM (inactive) | – | 20.6 µM (inactive) | 15.3 µM (inactive) |

From ChEMBL document CHEMBL1201862, “PubChem BioAssay data set” (2004)
